How the values were obtained:
Experiment in all cases: relative viability (nuclei count vs DMSO), 5 days (fraction); higher = more cells survive
[1] = compound: C#Cc1cccc(Nc2ncnc3cc(OC)c(OCCCCCCC(=O)NO)cc23)c1 [CUDC-101] + CCNC(=O)c1noc(-c2cc(C(C)C)c(O)cc2O)c1-c1ccc(CN2CCOCC2)cc1 [Luminespib] (partner 0.01 µM)
Outline: (§1)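 Lung cancer cell lines, seeded in 1536-well plates, were treated the following day by pin tool with a single drug or with five library-drug doses (not always all listed) in √10 steps on top of a fixed anchor-drug dose. Cells were fixed and nuclei stained in one step after 5 days, and nuclei were counted. Relative viability is the nuclei count for treated wells divided by that for vehicle wells, reported as medians of duplicate plates.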

[2] = compound: C#Cc1cccc(Nc2ncnc3cc(OC)c(OCCCCCCC(=O)NO)cc23)c1 [CUDC-101] + Nc1ncn([C@H]2C[C@H](O)[C@@H](CO)O2)c(=O)n1 [Decitabine] (partner 2 µM)
Outline: as §1

[3] = compound: COc1cc(N2CCC(N3CCN(C)CC3)CC2)ccc1Nc1ncc(Cl)c(Nc2ccccc2S(=O)(=O)C(C)C)n1 [NVP-TAE684] + N=C(N)NC(=N)NCCc1ccccc1 [Phenformin] (partner 250 µM)
Outline: as §1

[4] = compound: COc1cc2/c(=N/c3ccc(Br)cc3F)nc[nH]c2cc1OCC1CCN(C)CC1 [Vandetanib] + CC1(C)CCC(c2ccc(Cl)cc2)=C(CN2CCN(c3ccc(C(=O)NS(=O)(=O)c4ccc(N[C@H](CCN5CCOCC5)CSc5ccccc5)c(S(=O)(=O)C(F)(F)F)c4)cc3)CC2)C1 [Navitoclax] (partner 0.5 µM)
Outline: as §1

Row | Cell Line | relative viability ([1]; first compound 0.01 µM) | relative viability ([1]; first compound 0.03162 µM) | relative viability ([1]; first compound 0.1 µM) | relative viability ([1]; first compound 0.3162 µM) | relative viability ([1]; first compound 1 µM) | relative viability ([2]; first compound 0.01 µM) | relative viability ([2]; first compound 0.03162 µM) | relative viability ([2]; first compound 0.1 µM) | relative viability ([2]; first compound 0.3162 µM) | relative viability ([2]; first compound 1 µM) | relative viability ([3]; first compound 0.2 µM) | relative viability ([3]; first compound 0.6325 µM) | relative viability ([3]; first compound 2 µM) | relative viability ([4]; first compound 0.02 µM) | relative viability ([4]; first compound 0.06325 µM) | relative viability ([4]; first compound 0.2 µM) | relative viability ([4]; first compound 0.6325 µM) | relative viability ([4]; first compound 2 µM)
1 | LXF-289 | 0.651 | 0.632 | 0.741 | 0.752 | 0.449 | 0.396 | 0.418 | 0.358 | 0.367 | 0.301 | 0.555 | 0.52 | 0.443 | 0.94 | 0.921 | 1 | 0.937 | 0.934
2 | NCI-H23 | 0.197 | 0.204 | 0.209 | 0.207 | 0.197 | 0.317 | 0.321 | 0.346 | 0.307 | 0.543 | 0.987 | 0.757 | 0.518 | 0.782 | 0.8 | 0.769 | 0.914 | 0.688
3 | NCI-H322M | 0.84 | 0.697 | 0.899 | 1.01 | 0.697 | 0.65 | 0.686 | 0.625 | 0.651 | 0.517 | 0.731 | 0.705 | 0.52 | 1.14 | 1.1 | 1.24 | 1.04 | 1.15
4 | NCI-H441 | 0.359 | 0.381 | 0.304 | 0.414 | 0.371 | 0.303 | 0.305 | 0.262 | 0.242 | 0.236 | 0.574 | 0.755 | 0.258 | 0.627 | 0.529 | 0.754 | 0.368 | 0.578
5 | NCI-H460 | 0.0424 | 0.0301 | 0.0366 | 0.0315 | 0.0288 | 0.522 | 0.459 | 0.423 | 0.533 | 0.433 | 0.354 | 0.547 | 0.0633 | 1.13 | 0.999 | 0.0215 | 1.25 | 1.09
6 | NCI-H520 | 0.241 | 0.221 | 0.208 | 0.204 | 0.245 | 0.49 | 0.622 | 0.478 | 0.513 | 0.318 | 0.553 | 0.451 | 0.242 | 0.946 | 1.04 | 1.08 | 1.07 | 1.04
7 | NCI-H596 | 1.12 | 0.936 | 0.923 | 0.927 | 0.972 | 0.902 | 1.03 | 0.988 | 1.18 | 1.02 | 0.709 | 0.656 | 0.579 | 0.942 | 0.976 | 1.05 | 0.94 | 0.795
8 | NCI-H647 | 0.188 | 0.266 | 0.147 | 0.195 | 0.238 | 0.267 | 0.326 | 0.308 | 0.335 | 0.24 | 0.309 | 0.423 | 0.189 | 0.943 | 1.09 | 1.16 | 1.17 | 1.06
9 | NCI-H727 | 0.399 | 0.392 | 0.558 | 0.342 | 0.396 | 1.19 | 0.906 | 0.944 | 0.989 | 0.695 | 0.512 | 0.641 | 0.341 | 0.45 | 0.468 | 0.528 | 0.449 | 0.287
